The record followed here is paper PMC7016953 (Cells, 2020).

The assay concerns the target T1, TRPC3 (Homo sapiens, UniProt Q13507).
T1 construct: expressed in transfected cells
T1 sequence (Q13507 1-848 isoform Q13507-3): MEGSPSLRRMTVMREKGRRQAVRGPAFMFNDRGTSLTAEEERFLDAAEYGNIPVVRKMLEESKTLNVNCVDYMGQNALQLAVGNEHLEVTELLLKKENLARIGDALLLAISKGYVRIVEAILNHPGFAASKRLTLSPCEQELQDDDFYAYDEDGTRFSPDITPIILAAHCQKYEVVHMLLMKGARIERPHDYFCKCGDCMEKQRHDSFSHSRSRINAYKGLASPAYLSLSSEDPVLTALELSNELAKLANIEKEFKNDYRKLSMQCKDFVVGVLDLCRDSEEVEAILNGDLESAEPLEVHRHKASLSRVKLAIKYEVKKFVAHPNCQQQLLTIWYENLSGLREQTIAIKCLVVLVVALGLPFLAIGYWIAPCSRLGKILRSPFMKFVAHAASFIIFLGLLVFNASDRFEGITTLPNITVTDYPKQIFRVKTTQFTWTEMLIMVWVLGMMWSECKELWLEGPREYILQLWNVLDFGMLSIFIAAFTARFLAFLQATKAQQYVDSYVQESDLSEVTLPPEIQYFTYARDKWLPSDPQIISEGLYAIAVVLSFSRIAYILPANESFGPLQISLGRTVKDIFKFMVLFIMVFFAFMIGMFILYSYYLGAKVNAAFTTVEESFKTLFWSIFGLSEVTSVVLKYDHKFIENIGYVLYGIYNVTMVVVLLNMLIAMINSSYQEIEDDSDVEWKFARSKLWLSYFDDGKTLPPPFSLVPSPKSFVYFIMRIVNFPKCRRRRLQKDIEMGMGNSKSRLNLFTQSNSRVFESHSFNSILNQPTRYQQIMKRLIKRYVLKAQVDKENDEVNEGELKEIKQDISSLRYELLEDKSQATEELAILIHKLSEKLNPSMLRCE
Kind of assay: Outside-out patch recordings from HEK TRPC3-YFP cells. It is filed as cell-based. The note with it: 50 µM, outside-out patches, −100 mV, n = 6. The method, then: The recordings of TRPC3, TRPC6, or TRPC7 membrane currents in HEK293 or PC12 cells were realized by using a Multiclamp 700B amplifier with a Digidata 1440A digitizer controlled by the PClamp 10 software (all Molecular Devices, Sunnyvale, CA, U.S.A.). Recordings were obtained at room temperature either in the whole-cell or in an outside-out configuration as indicated. Cells were seeded as described above, but at lower density, mounted in a chamber (Warner Instruments, Hamden, CT; U.S.A.), placed onto the stage of an inverted microscope, and perfused with required solution. The standard extracellular solution contained 140 mM NaCl, 5 mM CsCl, 2 mM MgCl2, 1 mM CaCl2, 10 mM HEPES, and 0.035% BSA adjusted to pH 7.4 with NaOH. The composition of standard intracellular solution was 140 mM CsCl, 1 mM MgCl2, 5 mM EGTA, and 10 mM HEPES adjusted to pH 7.25 with CsOH; the osmolarity was 295 mOsm l^−1. In outside-out measurements, the pipette solution contained 5 mM EGTA and 1.1 mM CaCl2 to achieve a calculated free Ca^2+ concentration of 100 nM. […]
Outside-out patches were obtained from HEKTRPC3-YFP cells, and ionic currents were continuously recorded at a patch potential of –100 mV. […] (B) The open probability (Po) for the unknown number N of channels in the patch of the experiment shown in (A) was calculated over 2 s bins and plotted at the same time scale.

With `C[C@@H]1CC[C@H]2[C@@H](C)C(=O)O[C@@H]3O[C@@]4(C)CC[C@@H]1[C@]32OO4` [artemisinin], the “increase in the open probability” value is reported as “about 5.5 fold”.
